Legend:
ASIC3 = settings: cited from earlier work; for Effect on ASIC3: lipids, ref [21]
Source text: Acid-sensing ion channels (ASICs) are members of ligand-gated cation channels and belong to the degenerin/epithelial Na^+ channel superfamily. Four genes (ACCN1–ACCN4) express six subunits (ASIC1a, ASIC1b, ASIC2a, ASIC2b, ASIC3, and ASIC4), four of which can form functional homomeric channels (ASIC1a, ASIC1b, ASIC2a, and ASIC3). ASIC channels are widely expressed throughout the neurons of central and peripheral nervous systems, where they play a role in neurotransmission, synaptic plasticity, and learning, and in ischemia, neuronal cell death.

[1] = tested on: delayed rectifying K^+, voltage-gated Na^+, and L-type Ca^2+ currents; design: method as in PMID 29477572; settings: ref [19]; cited from earlier work
ASIC channels [2] = settings: ref [14],[18],[19]; cited from earlier work
Source text: All previously known activators of ASIC channels, both exogenous and endogenous, cause a persistent, slowly desensitized current that was different in kinetic parameters from currents induced by pH drops. […] Both agonists show rapid kinetics of desensitization of the currents and have a high Hill coefficient of activation. The identical efficiency with which the toxin Mamb-2 inhibits the nocistatin- and proton ...

rat ASIC3 channels = tested on: rat ASIC3 channels; design: method as in 2 sources, ref [20] = [20]; PMID 29277899; doi:10.1111/bph.14134; 20. Osmakov D.I. Koshelev S.G. Andreev Y.A. Dubinnyi M.A. Kublitski V.S. Efremov R.G. Sobolevsky A.I. Kozlov S.A. Proton-independent activation of acid-sensing ion channel 3 by an alkaloid, lindoldham ||| ref [22] = [22]; PMID 28955199; doi:10.3389/fnmol.2017.00282; 22. Osmakov D.I. Koshelev S.G. Andreev Y.A. Kozlov S.A. Endogenous Isoquinoline Alkaloids Agonists of Acid-Sensing Ion Channel Type 3 Front. Mol. Neurosci. 2017 10 282 10.3389/fnmol.2017.00282 2895519; settings: cited from earlier work; for Effect on rat ASIC3: physiological pH, prevents steady-state desensitization, ref [22]
human ASIC3 channels = tested on: human ASIC3 channels; design: method as in 2 sources, ref [20] = [20]; PMID 29277899; doi:10.1111/bph.14134; 20. Osmakov D.I. Koshelev S.G. Andreev Y.A. Dubinnyi M.A. Kublitski V.S. Efremov R.G. Sobolevsky A.I. Kozlov S.A. Proton-independent activation of acid-sensing ion channel 3 by an alkaloid, lindoldham ||| ref [22] = [22]; PMID 28955199; doi:10.3389/fnmol.2017.00282; 22. Osmakov D.I. Koshelev S.G. Andreev Y.A. Kozlov S.A. Endogenous Isoquinoline Alkaloids Agonists of Acid-Sensing Ion Channel Type 3 Front. Mol. Neurosci. 2017 10 282 10.3389/fnmol.2017.00282 2895519; settings: cited from earlier work; for Effect on human ASIC3: physiological pH, prevents steady-state desensitization, ref [22]
ASIC1a = assay: Response of ASIC1a to nociceptin and orphanin; format: cell-based, rat; settings: applied under the same conditions as nocistatin, pH 7.4, pH drop to 5.5; n = 4
Description: Oocytes expressed rASIC1a, rASIC1b, rASIC2a, and rASIC3 homomeric channels were prepared as described. Injected oocytes were kept for two–three days at 19 °C and then for up to seven days at 15 °C in ND-96 medium supplemented with gentamycin (50 μg·mL^−1) and containing (in mM): 96 NaCl, 2 KCl, 1.8 CaCl2, 1 MgCl2, and 10 HEPES titrated to pH 7.4 with NaOH. Electrophysiological recordings were performed using the GeneClamp500 amplifier (Axon Instruments, Inverurie, UK) at a holding potential of -50 mV. The data were filtered at 20 Hz and digitized at 100 Hz using the L780 AD converter (L-Card, Moscow, Russia). Microelectrodes were filled with 3 M KCl. The external bath solution was ND-96 with pH adjusted to 7.4/7.8 (10 mM HEPES) /8.5 (10 mM Tris). Nocistatin containing solutions were freshly prepared and buffered each experimental day in ND-96 bath solution (pH 7.4/7.8/8.5). Proton-activated currents through ASIC channels were elicited by application of ND-96, in which 10 mM of HEPES was substituted with 10 mM MES at pH 5.5/ 10 mM acetic acid at pH 4.5. The whole-cell recording was performed if a response to the control pH stimulus was stable in at least two replicates. […]
Figure S1. […] Currents were measured at a holding external bath pH 7.4 and were induced by a pH drop to 5.5. […]

ASIC channels [3] = settings: Supplementary Figure S1 and ref [23]; cited from earlier work
Source text: The nocistatin in mammalian is expressed as a precursor protein coding three neuropeptides (nocistatin, nociceptin, and Orphanin FQ2). […] Nocistatin is well represented in different parts of the brain and spinal cord. […] Nocistatin was studied in animal models as a prospective molecule together with opi ...

[4] = broad range of pH, including pH > 7.4, ref [20]

Molecule: Cc1nc(NC(=N)N)nc2ccccc12 [GMQ, 2-guanidine-4-methylquinazoline]
- Action on ASIC3 (ASIC3; pH < 7.4, ref [18]): acting on ASIC3 at pH < 7.4 through a nonproton sensor
- Modulation of K^+, Na^+ and Ca^2+ currents [1]: modulating delayed rectifying K^+, voltage-gated Na^+, and L-type Ca^2+ currents
- Shape of current caused by activator (ASIC channels [2]): slowly developing, non-desensitizing and non-selective cation current

Molecule: CCCCC/C=C\C/C=C\C/C=C\C/C=C\CCCC(=O)O [arachidonic acid]
- Effect on ASIC3 (ASIC3): evoking a constitutive depolarizing ASIC3-mediated current

Molecule: COc1cc2c(cc1O)[C@H](Cc1ccc(Oc3cc(C[C@@H]4NCCc5cc(OC)c(O)cc54)ccc3O)cc1)NCC2 [lindoldhamine]
- Action on rat ASIC3 (rat ASIC3 channels; [4]): agonist and positive allosteric modulator
- Action on human ASIC3 (human ASIC3 channels; [4]): agonist and positive allosteric modulator

Molecule: COc1ccc(C[C@H]2c3cc(O)c(OC)cc3CCN2C)cc1O [reticuline]
- Effect on rat ASIC3 (rat ASIC3 channels): activating human and rat ASIC3 channels at physiological pH and preventing a steady-state desensitization of the channels
- Effect on human ASIC3 (human ASIC3 channels): activating human and rat ASIC3 channels at physiological pH and preventing a steady-state desensitization of the channels

Molecule: Oc1ccc(CC2NCCc3cc(O)c(O)cc32)cc1O (stereo not drawn) [tetrahydropapaveroline (THP), tetrahydropapaveroline]
- Effect on rat ASIC3 (rat ASIC3 channels): activating human and rat ASIC3 channels at physiological pH and preventing a steady-state desensitization of the channels
- Effect on human ASIC3 (human ASIC3 channels): activating human and rat ASIC3 channels at physiological pH and preventing a steady-state desensitization of the channels

Molecule: lysophosphatidylcholine [lysophosphatidylcholine (LPC)]
- Effect on ASIC3 (ASIC3): evoking a constitutive depolarizing ASIC3-mediated current

Molecule: nociceptin: neuropeptide nociceptin (NC) [PNOC_RAT 135–151] (FGGFTGARKSARKLANQ; Nociceptin; UniProt Q62923 135-151, looked up, fragment)
- Effect on ASIC1a (ASIC1a): no effect (neither activating nor inhibitory)
- Activating effects on ASIC channels (ASIC channels [3]): do not have activating effects on ASIC channels

Molecule: orphanin: neuropeptide orphanin (Orf) [PNOC_RAT 154–170] (FSEFMRQYLVLSMQSSQ; Orphanin FQ2; UniProt Q62923 154-170, looked up, fragment)
- Effect on ASIC1a (ASIC1a): no effect (neither activating nor inhibitory)
- Activating effects on ASIC channels (ASIC channels [3]): do not have activating effects on ASIC channels

— publication PMC6769468, “Endogenous Neuropeptide Nocistatin Is a Direct Agonist of Acid-Sensing Ion Channels (ASIC1, ASIC2 and ASIC3)” (Biomolecules, 2019)
